# pIC50: −log10 of the molar value.
# Tested on: production of TNF by monocytes activated with bacterial lipopolysaccharide (LPS)
# Test: Lipopolysaccharide-activated monocyte TNF production assay
# Assay type: cell-based
# Details: Homo sapiens; whole blood monocyte assay (LPS induced TNF release)
# Method in brief: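 Adherent human PBMC-derived monocytes preincubated 60 min with nine two-fold compound dilutions, then stimulated with E. coli K532 LPS (30 ng/mL in the added medium) for 4 h at 37 °C. Supernatant TNF measured by sandwich ELISA; IC50 is the compound concentration halving TNF production, from second-order polynomial fits.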
row,Structure (SMILES),pIC50
1,"Fc1ccc(Oc2ccc3c(-c4cncnc4)nncc3c2)cc1 [Example 351, 6-(4-fluorophenoxy)-1-pyrimidin-5-ylphthalazine]",≥ 5.30
2,"Cc1ccccc1-c1nncc2cc(Oc3cccc(C(=O)NC4CC4)c3)ccc12 [Example 352, N-cyclopropyl-3-{[1-(2-methylphenyl)phthalazin-6-yl]oxy}benzamide]",≥ 5.30
3,"CS(=O)(=O)N1CCN(c2nncc3cc(Oc4ccc(F)cc4)ccc23)CC1 [Example 353, 6-(4-fluorophenoxy)-1-[4-(methylsulfonyl)piperazin-1-yl]phthalazine]",≥ 5.30
4,"Cc1ccccc1-c1nncc2cc(Oc3cccc(C(=O)O)c3)ccc12 [Example 354, 3-{[1-(2-methylphenyl)phthalazin-6-yl]oxy}benzoic acid]",≥ 5.30
5,"Cc1ccccc1-c1nncc2cc(Oc3cccc(F)c3)ccc12 [Example 355, 6-(3-fluorophenoxy)-1-(2-methylphenyl)phthalazine]",≥ 5.30
6,"Fc1ccc(Oc2ccc3c(N4CCOCC4)nncc3c2)c(F)c1 [Example 356, 6-(2,4-difluorophenoxy)-1-morpholin-4-ylphthalazine]",≥ 5.30
7,"Cc1ccc(S(N)(=O)=O)cc1-c1ccc2c(NC(C)C)nncc2c1 [Example 357, 3-[1-(isopropylamino)phthalazin-6-yl]-4-methylbenzenesulfonamide]",≥ 5.30
8,"CNS(=O)(=O)c1ccc(C)c(-c2ccc3c(NC(C)C)nncc3c2)c1 [Example 358, 3-[1-(isopropylamino)phthalazin-6-yl]-N,4-dimethylbenzenesulfonamide]",≥ 5.30
9,"Cc1ccc(S(=O)(=O)NC2CC2)cc1-c1ccc2c(NC(C)C)nncc2c1 [Example 359, N-cyclopropyl-3-[1-(isopropylamino)phthalazin-6-yl]-4-methylbenzenesulfonamide]",≥ 5.30
10,"Cc1ccc(S(=O)(=O)NC2CC2)cc1-c1ccc2c(N3CCOCC3)nncc2c1 [Example 360, N-cyclopropyl-4-methyl-3-(1-morpholin-4-ylphthalazin-6-yl)benzenesulfonamide]",≥ 5.30
11,"CCNC(=O)c1ccc(C)c(-c2ccc3c(CC(C)C)nncc3c2)c1 [Example 361, N-ethyl-3-(1-isobutylphthalazin-6-yl)-4-methylbenzamide]",≥ 5.30
12,"CCOC(=O)c1ccc(C)c(-c2ccc3c(C(C)C)nncc3c2)c1 [Example 362, ethyl 3-(1-isopropylphthalazin-6-yl)-4-methylbenzoate]",≥ 5.30
13,"CCNC(=O)c1ccc(C)c(-c2ccc3c(C(C)C)nncc3c2)c1 [Example 363, N-ethyl-3-(1-isopropylphthalazin-6-yl)-4-methylbenzamide]",≥ 5.30
14,"Cc1cc(S(N)(=O)=O)ccc1-c1nncc2cc(Oc3ccc(F)cc3)ccc12 [Example 364, 4-[6-(4-fluorophenoxy)phthalazin-1-yl]-3-methylbenzenesulfonamide]",≥ 5.30
15,"CC[C@H](C)Nc1nncc2cc(-c3c(C)ccc4c(NC)noc34)ccc12 [Example 365, 6-[6-methyl-3-(methylamino)-1,2-benzisoxazol-7-yl]-N-[(1S)-1-methylpropyl]phthalazin-1-amine]",≥ 5.30
16,"CC[C@@H](C)Nc1nncc2cc(-c3c(C)ccc4c(NC)noc34)ccc12 [Example 366, 6-[6-methyl-3-(methylamino)-1,2-benzisoxazol-7-yl]-N-[(1R)-1-methylpropyl]phthalazin-1-amine]",≥ 5.30
17,"Cc1ccc2c(N)nsc2c1-c1ccc2c(N3CCOC[C@@H]3C)nncc2c1 [Example 367, 6-methyl-7-{1-[(3S)-3-methylmorpholin-4-yl]phthalazin-6-yl}-1,2-benzisothiazol-3-amine]",≥ 5.30
18,"Cc1ccc(C(N)=O)cc1-c1ccc2c(N3C[C@H](C)N(CC(F)(F)F)C[C@H]3C)nncc2c1 [Example 368, 3-{1-[(2R,5S)-2,5-dimethyl-4-(2,2,2-trifluoroethyl)piperazin-1-yl]phthalazin-6-yl}-4-methylbenzamide]",≥ 5.30
19,"Cc1ccc(C(=O)NC2CC2)cc1-c1ccc2c(NC(C)c3ccccn3)nncc2c1 (centres unmarked) [Example 369, N-cyclopropyl-4-methyl-3-{1-[(1-pyridin-2-ylethyl)amino]phthalazin-6-yl}benzamide]",≥ 5.30
20,"Cc1ccc2c(NC3CC3)noc2c1-c1ccc2c(NC(C)C)nncc2c1 [Example 370, 6-[3-(cyclopropylamino)-6-methyl-1,2-benzisoxazol-7-yl]-N-isopropylphthalazin-1-amine]",≥ 5.30
21,"CC(=O)N1CCN(c2nncc3cc(-c4cc(C(=O)NC5CC5)ccc4C)ccc23)[C@@H](C)C1 [Example 371, 3-{1-[(2S)-4-acetyl-2-methylpiperazin-1-yl]phthalazin-6-yl}-N-cyclopropyl-4-methylbenzamide]",≥ 5.30

row,Structure (SMILES),pIC50
1,"CNc1noc2c(-c3ccc4c(NC(C)C)nncc4c3)c(C)ccc12 [Example 372, N-isopropyl-6-[6-methyl-3-(methylamino)-1,2-benzisoxazol-7-yl]phthalazin-1-amine]",≥ 5.30
2,"CNc1noc2c(-c3ccc4c(N5CCOC[C@H]5C)nncc4c3)c(C)ccc12 [Example 373, N,6-dimethyl-7-{1-[(3R)-3-methylmorpholin-4-yl]phthalazin-6-yl}-1,2-benzisoxazol-3-amine]",≥ 5.30
3,"Cc1ccccc1-c1nncc2cc(-c3c(C)ccc4c(NC5CC5)noc34)ccc12 [Example 374, N-cyclopropyl-6-methyl-7-[1-(2-methylphenyl)phthalazin-6-yl]-1,2-benzisoxazol-3-amine]",≥ 5.30
4,"COc1ncccc1-c1ccc2c(-c3cccnc3OC)nncc2c1 [Example 375, 1,6-bis(2-methoxypyridin-3-yl)phthalazine]",≥ 5.30
5,"Cc1ccc(C(=O)NC2CC2)cc1-c1ccc2c(N3C[C@H](C)N(CC(F)(F)F)C[C@H]3C)nncc2c1 [Example 376, N-cyclopropyl-3-{1-[(2R,5S)-2,5-dimethyl-4-(2,2,2-trifluoroethyl)piperazin-1-yl]phthalazin-6-yl}-4-methylbenzamide]",≥ 5.30
6,"Cc1cc(F)ccc1-c1nncc2cc(-c3c(C)ccc4c(NC5CC5)noc34)ccc12 [Example 377, N-cyclopropyl-7-[1-(4-fluoro-2-methylphenyl)phthalazin-6-yl]-6-methyl-1,2-benzisoxazol-3-amine]",≥ 5.30
7,"Cc1ccccc1-c1nncc2cc(-c3c(C)ccc(C(=N)NC4CC4)c3O)ccc12 [Example 378, N-cyclopropyl-2-hydroxy-4-methyl-3-[1-(2-methylphenyl)phthalazin-6-yl]benzenecarboximidamide]",≥ 5.30
8,"CCOC(=O)N1CCN(c2nncc3cc(-c4cc(C(=O)NC5CC5)ccc4C)ccc23)[C@@H](C)C1 [Example 379, ethyl(3S)-4-(6-{5-[(cyclopropylamino)carbonyl]-2-methylphenyl}phthalazin-1-yl)-3-methylpiperazine-1-carboxylate]",≥ 5.30
9,"Cc1cc(NC(=O)c2ccc(C)c(-c3ccc4c(N5CCOCC5)nncc4c3)c2)no1 [Example 380, 4-methyl-N-(5-methylisoxazol-3-yl)-3-(1-morpholin-4-ylphthalazin-6-yl)benzamide]",≥ 5.30
10,"Cc1ccc2c(NC(C)(C)C)noc2c1-c1ccc2c(N3CCOC[C@@H]3C)nncc2c1 [Example 381, N-(tert-butyl)-6-methyl-7-{1-[(3S)-3-methylmorpholin-4-yl]phthalazin-6-yl}-1,2-benzisoxazol-3-amine]",≥ 5.30
11,"Cc1cc(F)ccc1-c1nncc2cc(-c3ccc(Cl)c4c(NC5CC5)noc34)ccc12 [Example 382, 4-chloro-N-cyclopropyl-7-[1-(4-fluoro-2-methylphenyl)phthalazin-6-yl]-1,2-benzisoxazol-3-amine]",≥ 5.30
12,"CC(=O)N1CCN(c2nncc3cc(-c4cc(C(N)=O)ccc4C)ccc23)[C@@H](C)C1 [Example 383, 3-{1-[(2S)-4-acetyl-2-methylpiperazin-1-yl]phthalazin-6-yl}-4-methylbenzamide]",≥ 5.30
13,"CCNc1noc2c(-c3ccc4c(N5CCOC[C@@H]5C)nncc4c3)c(C)ccc12 [Example 384, N-ethyl-6-methyl-7-{1-[(3S)-3-methylmorpholin-4-yl]phthalazin-6-yl}-1,2-benzisoxazol-3-amine]",≥ 5.30
14,"Cc1ccc2c(N)noc2c1-c1ccc2c(NC(C)C)nncc2c1 [Example 385, 6-(3-amino-6-methyl-1,2-benzisoxazol-7-yl)-N-isopropylphthalazin-1-amine]",≥ 5.30
15,"Cc1ccccc1-c1ccc2c(-c3ccccc3C)nncc2c1 [Example 386, 1,6-bis(2-methylphenyl)phthalazine]",≥ 5.30
16,"Cc1ccc2c(N)noc2c1-c1ccc2c(N3CCOC[C@@H]3C)nncc2c1 [Example 387, 6-methyl-7-{1-[(3S)-3-methylmorpholin-4-yl]phthalazin-6-yl}-1,2-benzisoxazol-3-amine]",≥ 5.30
17,"Cc1ccc2c(NC3CC3)noc2c1-c1ccc2c(N3CCOCC3)nncc2c1 [Example 388, N-cyclopropyl-6-methyl-7-(1-morpholin-4-ylphthalazin-6-yl)-1,2-benzisoxazol-3-amine]",≥ 5.30
18,"CCNc1noc2c(-c3ccc4c(NC(C)C)nncc4c3)c(C)ccc12 [Example 389, 6-[3-(ethylamino)-6-methyl-1,2-benzisoxazol-7-yl]-N-isopropylphthalazin-1-amine]",≥ 5.30
19,"CC(=O)N1CCN(c2nncc3cc(-c4c(C)ccc5c(NC6CC6)noc45)ccc23)[C@@H](C)C1 [Example 390, 7-{1-[(2S)-4-acetyl-2-methylpiperazin-1-yl]phthalazin-6-yl}-N-cyclopropyl-6-methyl-1,2-benzisoxazol-3-amine]",≥ 5.30
20,"Cc1ccc2c(N)n[nH]c2c1-c1ccc2c(N3CCOC[C@@H]3C)nncc2c1 [Example 391, 6-methyl-7-{1-[(3S)-3-methylmorpholin-4-yl]phthalazin-6-yl}-1H-indazol-3-amine]",≥ 5.30

# — patent US7759337B2, “Phthalazine compounds and methods of use” (Amgen Inc., priority 2005, dated 2010)
